Measured values taken from article PMC2631656 (Journal of medicinal chemistry, 2008).
Read-outs that look alike come from different tables or passages of the source.

What was measured:
[1] = tested on: PSMA^+ PC-3 PIP and PC-3 flu xenografts; test: PET-CT imaging, PC-3 PIP and PC-3 flu xenografts; format: in vivo; conditions: dynamic scan 94-120 min p.i., i.v.
[2] = tested on: PC-3 PIP (PSMA^+) and PC-3 flu (PSMA^-) xenografts

For O=C(O)CCC(NC(=O)NC(CCCCNC(=O)c1ccc([18F])cc1)C(=O)O)C(=O)O (stereo not drawn) [Compound [^18F]6, 2-[3-[1-carboxy-5-(4-[^18F]fluoro-benzoylamino)-pentyl]-ureido]-pentanedioic acid], the “uptake pattern on PET” value [1] was “easily observed within PSMA^+ PIP tumor, none within flu tumor, high renal uptake and a modest degree of liver uptake”, the “uptake in PC-3 PIP tumor” value ([2]; 30 min p.i.) was 8.6 ± 3.1 % ID/g and the “uptake in PC-3 flu tumor” value ([2]; 30 min p.i.) was 0.8 ± 0.3 % ID/g. For the same molecule, the uptake in bladder ([2]; 30 min p.i.) was 6.8 ± 3.5 % ID/g, the uptake in blood ([2]; 30 min p.i.) was 2.5 ± 1.7 % ID/g and the uptake in heart ([2]; 30 min p.i.) was 0.8 ± 0.1 % ID/g. For the same molecule, the uptake in kidney ([2]; 30 min p.i.) was 72 ± 3 % ID/g, the “uptake in large int.” value ([2]; 30 min p.i.) was 1.2 ± 0.8 % ID/g and the uptake in liver ([2]; 30 min p.i.) was 8.7 ± 1.8 % ID/g. For the same molecule, the uptake in lung ([2]; 30 min p.i.) was 1.7 ± 0.3 % ID/g, the uptake in muscle ([2]; 30 min p.i.) was 2.4 ± 3.1 % ID/g and the uptake in pancreas ([2]; 30 min p.i.) was 0.8± 0.1 % ID/g. The “uptake in small int.” value ([2]; 30 min p.i.) was 1.7 ± 0.7 % ID/g, the uptake in spleen ([2]; 30 min p.i.) was 12.7 ± 0.4 % ID/g and the uptake in stomach ([2]; 30 min p.i.) was 0.8 ± 0.1 % ID/g. The “uptake in PC-3 PIP tumor” value ([2]; 60 min p.i.) was 6.4 ± 0.9 % ID/g, the uptake in bladder ([2]; 60 min p.i.) was 17 ± 21 % ID/g and the uptake in heart ([2]; 60 min p.i.) was 0.2 ± 0.02 % ID/g. The uptake in kidney ([2]; 60 min p.i.) was 48 ± 5 % ID/g, the “uptake in large int.” value ([2]; 60 min p.i.) was 0.5 ± 0.1 % ID/g and the uptake in liver ([2]; 60 min p.i.) was 5.8 ± 0.6 % ID/g. For the same molecule, the uptake in lung ([2]; 60 min p.i.) was 0.5 ± 0.1 % ID/g, the uptake in muscle ([2]; 60 min p.i.) was 0.5 ± 0.7 % ID/g and the “uptake in small int.” value ([2]; 60 min p.i.) was 0.6 ± 0.2 % ID/g. The uptake in spleen ([2]; 60 min p.i.) was 7.2 ± 1.6 % ID/g, the uptake in stomach ([2]; 60 min p.i.) was 0.25 ± 0.1 % ID/g and the “uptake in PC-3 PIP tumor” value ([2]; 2 h p.i.) was 3.7 ± 1.2 % ID/g. For the same molecule, the “uptake in PC-3 flu tumor” value ([2]; 2 h p.i.) was 0.25 ± 0.1 % ID/g, the uptake in heart ([2]; 2 h p.i.) was 0.15 ± 0.05 % ID/g and the uptake in kidney ([2]; 2 h p.i.) was 29 ± 12 % ID/g. The “uptake in large int.” value ([2]; 2 h p.i.) was 0.2 ± 0.1 % ID/g, the uptake in liver ([2]; 2 h p.i.) was 11.7 ± 7.0 % ID/g and the uptake in muscle ([2]; 2 h p.i.) was 0.2 ± 0.1 % ID/g. For the same molecule, the uptake in pancreas ([2]; 2 h p.i.) was 0.15 ± 0.03 % ID/g, the uptake in spleen ([2]; 2 h p.i.) was 4.4 ± 1.2 % ID/g and the uptake in bladder ([2]; 5 h p.i.) was 5.2 ± 8.9 % ID/g. For the same molecule, the uptake in blood ([2]; 5 h p.i.) was 0.03 ± 0.00 % ID/g, the uptake in heart ([2]; 5 h p.i.) was 0.03 ± 0.01 % ID/g and the uptake in kidney ([2]; 5 h p.i.) was 14 ± 9 % ID/g. The “uptake in large int.” value ([2]; 5 h p.i.) was 0.6 ± 0.6 % ID/g, the uptake in pancreas ([2]; 5 h p.i.) was 0.05 ± 0.03 % ID/g and the uptake in stomach ([2]; 5 h p.i.) was 0.04 ± 0.02 % ID/g.
